The results in this text go back to US9763966B2, “Fluocinolone formulations in a biodegradable polymer carrier” (Warsaw Orthopedic, Inc., priority 2008, dated 2017).

Assay [1] has as its system inflammatory response. Put plainly: Implant-site observation: resorption of foreign material and encapsulation (FIGS. 9 and 10). The assay is classed as in vivo. The conditions noted are these: picture. The source says: FIG. 10 is a picture of fluocinolone implants 20 wt % 85/15 PLGA+10% mPEG and 1% wt fluocinolone 100 DL 7E+5% PEG/7% 50/50 PLGA 7A. The foreign and inflammatory material was not resorbed due to lack of inflammatory response mediated by fluocinolone implants.

Assay [2] deals with chronic constriction injury (CCI) model of neuropathic pain. Put plainly: 2-month chronic constriction injury (CCI) model: mechanical threshold and thermal paw withdrawal latency. The assay is classed as in vivo. To be noted: compared with the fluocinolone implants. As to the method:
A 2-month chronic constriction injury (CCI) model of neuropathic pain was used to evaluate different formulations of a corticosteroid, fluocinolone, encapsulated in bioerodable polymers compared to fluocinolone given subcutaneously (SC). Different formulations as provided in Table B below were evaluated for reducing pain-associated behaviors: Thermal paw withdrawal latency was evaluated at baseline 7, 14, 21, 28, 35, 42, 49, and 56 days post-operatively, while mechanical threshold was evaluated at 8, 15, 22, 29, 36, 43, 50, and 57 days post-operatively.
There were seven groups of animals tested. […]
Mechanical allodynia was measured using von Frey monofilaments (Stoelting, Wood Dale, Ill.) with varying stiffness (2.0-15.0 g) on Days 1, 8, 15, 22, 29, 36, 43, 50 and 57 as described previously (see FIGS. 5-6). […] The 50% paw withdrawal threshold response was determined by a sequential increasing and/or decreasing of the stimulus strength (the “up-down method” of Dixon). […] The 50% paw withdrawal threshold was calculated using the formula: 10 (Xf+kd)/10,000, where Xf is the final von Frey filament used (log units), k is a value that analyzes the response pattern (taken from the table published by Chaplan et al.), and d is the mean difference between stimuli (log units). The mean and standard error of the mean (SEM) were determined for each treatment group.

Each structure is given as a SMILES string.

In the case of `CC1=C(CC(=O)O)c2cc(F)ccc2/C1=C\c1ccc([S+](C)[O-])cc1` (stereo not drawn) [sulindac], in assay [1], the encapsulation of implant result is on record as “did not prevent encapsulation”; the “resorption of foreign and inflammatory material (sutures)” value is “resorbed”. Besides, the pain control response result in assay [2] was “very similar pain control response”.
